Laboratory results from paper PMC4965013, “Open Source Drug Discovery with the Malaria Box Compound Collection for Neglected Diseases and Beyond” (PLoS Pathogens, 2016).
Blank lines part the entries; values can stand above or below the molecule they belong to.

Columns and labels:
[1] = system: P. falciparum 3D7 trophozoites; assay: Metabolomic fingerprint profiling LC-MS; type: cell-based, Plasmodium falciparum; design: UDP-D-glucose / ADP-D-glucose: unit not given here; conditions: for Acetyllysine / N-acetyl-L-ornithine / N-carbamoyl-L-aspartate / NADPH / dAMP / dCMP / dTDP / dTMP / dTTP / dihydroorotate / orotate / DLH / DLS/SDL/SID / PD / PEE / PVNF / 3-phosphoglycerate / ADP-D-glucose / ATP / CDP / D-sedoheptulose-1/7-phosphate / FAD / GMP / NAD+ / NADP+ / Octoluse Bisphosphate / Pyroglutamic acid / UDP-D-glucose / UDP-D-glucuronate / UDP-N-acetyl-glucosamine / UDP / UMP / UTP / a-ketoglutarate / citrate/isocitrate / cytidine / dATP / dGMP/AMP / fumarate / glucose-1/6-phosphate / glycerate / guanine / guanosine / hypoxanthine / indole / inosine / nicotinate / ornithine / phosphoenolpyruvate / pyruvate / ribose-phosphate / sarcosine/alanine / sn-glycerol-3-phosphate / succinate/methylmalonic acid / uridine / xanthosine: S2 Table Metabolomics; for Acetyllysine: metabolite Acetyllysine; for N-acetyl-L-ornithine: metabolite N-acetyl-L-ornithine; for N-carbamoyl-L-aspartate: metabolite N-carbamoyl-L-aspartate; for NADPH: metabolite NADPH; for dAMP: metabolite dAMP; for dCMP: metabolite dCMP; for dTDP: metabolite dTDP; for dTMP: metabolite dTMP; for dTTP: metabolite dTTP; for dihydroorotate: metabolite dihydroorotate; for orotate: metabolite orotate; for DLH: peptide DLH; for DLS/SDL/SID: peptide DLS/SDL/SID; for PD: peptide PD; for PEE: peptide PEE; for PVNF: peptide PVNF; for 3-phosphoglycerate: metabolite 3-phosphoglycerate; for ADP-D-glucose: metabolite ADP-D-glucose; for ATP: metabolite ATP; for CDP: metabolite CDP; for CDP / D-sedoheptulose-1/7-phosphate / GMP / Octoluse Bisphosphate / UDP / UMP / UTP / citrate/isocitrate / dGMP/AMP / fumarate / glucose-1/6-phosphate / glycerate / guanine / guanosine / inosine / pyruvate / sarcosine/alanine / succinate/methylmalonic acid / uridine / xanthosine: change in metabolite level after compound treatment; for D-sedoheptulose-1/7-phosphate: metabolite D-sedoheptulose-1/7-phosphate; for FAD: metabolite FAD; for GMP: metabolite GMP; for NAD+: metabolite NAD+; for NADP+: metabolite NADP+; for Octoluse Bisphosphate: metabolite Octoluse Bisphosphate; for Pyroglutamic acid: metabolite Pyroglutamic acid; for UDP-D-glucose: metabolite UDP-D-glucose; for UDP-D-glucuronate: metabolite UDP-D-glucuronate; for UDP-N-acetyl-glucosamine: metabolite UDP-N-acetyl-glucosamine; for UDP: metabolite UDP; for UMP: metabolite UMP; for UTP: metabolite UTP; for a-ketoglutarate: metabolite a-ketoglutarate; for citrate/isocitrate: metabolite citrate/isocitrate; for cytidine: metabolite cytidine; for dATP: metabolite dATP; for dGMP/AMP: metabolite dGMP/AMP; for fumarate: metabolite fumarate; for glucose-1/6-phosphate: metabolite glucose-1/6-phosphate; for glycerate: metabolite glycerate; for guanine: metabolite guanine; for guanosine: metabolite guanosine; for hypoxanthine: metabolite hypoxanthine; for indole: metabolite indole; for inosine: metabolite inosine; for 2_3-Diphosphoglyceric acid / 4-phosphopantothenate / 6-phospho-D-gluconate / FMN / IMP / Pyrophosphate / Sedoheptoluse bisphosphate / cyclic-AMP / glutathione disulfide / lactate / myo-inositol: metabolite level change after treatment; for nicotinate: metabolite nicotinate; for ornithine: metabolite ornithine; for phosphoenolpyruvate: metabolite phosphoenolpyruvate; for pyruvate: metabolite pyruvate; for ribose-phosphate: metabolite ribose-phosphate; for sarcosine/alanine: metabolite sarcosine/alanine; for sn-glycerol-3-phosphate: metabolite sn-glycerol-3-phosphate; for succinate/methylmalonic acid: metabolite succinate/methylmalonic acid; for uridine: metabolite uridine; for xanthosine: metabolite xanthosine
[2] = system: P. falciparum; assay: EC50 listed in S2 Table Metabolomics (used to set the concentration tested); type: cell-based; conditions: Plasmodium falciparum; EC50 used for Factor_XEC50 in metabolomics; read-out: EC50_nM

EC50 [2]: 0.148 µM
Compound: COc1ccc(C2=C(c3ccc(OC)cc3)C3(c4ccccc4)C(=O)C2(c2ccccc2)C2C(=O)N(c4ccc(C)cc4)C(=O)C23)cc1 (stereo not drawn) [MMV666101]
Acetyllysine [1]: -0.1129 | N-acetyl-L-ornithine [1]: 0.1609 | N-carbamoyl-L-aspartate [1]: -0.002224 | NADPH [1]: -0.9507 | dAMP [1]: -0.2629 | dCMP [1]: 0.3804 | dTDP [1]: 0.03996 | dTMP [1]: 0.002701 | dTTP [1]: 0.2425 | dihydroorotate [1]: 0.3476 | orotate [1]: -0.884 | DLH [1]: 0.3443 | DLS/SDL/SID [1]: 0.3548 | PD [1]: 0.01018 | PEE [1]: 0.2697 | PVNF [1]: 0.3279 | 3-phosphoglycerate [1]: -0.07386 | ADP-D-glucose [1]: 0.1248 | ATP [1]: 0.5165 | CDP [1]: 0.04064 | D-sedoheptulose-1/7-phosphate [1]: 0.08624 | FAD [1]: 0.1013 | GMP [1]: 0.6118 | NAD+ [1]: -0.01164 | NADP+ [1]: 0.3941 | Octoluse Bisphosphate [1]: 0.2807 | Pyroglutamic acid [1]: 0.2222 | UDP-D-glucose [1]: -0.02174 | UDP-D-glucuronate [1]: 0.06413 | UDP-N-acetyl-glucosamine [1]: 0.01073 | UDP [1]: 0.07085 | UMP [1]: 0.1142 | UTP [1]: 0.03866 | a-ketoglutarate [1]: -0.8357 | citrate/isocitrate [1]: -1.04 | cytidine [1]: 0.3993 | dATP [1]: -0.09007 | dGMP/AMP [1]: -0.1266 | fumarate [1]: -0.05622 | glucose-1/6-phosphate [1]: 0.03368 | glycerate [1]: -0.6868 | guanine [1]: -0.559 | guanosine [1]: -0.9392 | hypoxanthine [1]: -0.6138 | indole [1]: -0.8533 | inosine [1]: -0.8697 | 2_3-Diphosphoglyceric acid [1]: 0.4338 | 4-phosphopantothenate [1]: -0.011 | 6-phospho-D-gluconate [1]: 0.058 | FMN [1]: 0.02064 | IMP [1]: -0.3616 | Pyrophosphate [1]: 0.3662 | Sedoheptoluse bisphosphate [1]: 0.08206 | cyclic-AMP [1]: -0.009901 | glutathione disulfide [1]: 0.01065 | lactate [1]: -0.9335 | myo-inositol [1]: -1.462 | nicotinate [1]: -1.016 | ornithine [1]: -0.4187 | phosphoenolpyruvate [1]: 0.02347 | pyruvate [1]: -0.8543 | ribose-phosphate [1]: -0.007312 | sarcosine/alanine [1]: 0.06192 | sn-glycerol-3-phosphate [1]: -0.02979 | succinate/methylmalonic acid [1]: -0.01842 | uridine [1]: -0.9813 | xanthosine [1]: -0.2752

EC50 [2]: 0.00671 µM
Compound: Cc1cc(Nc2ccc(C)c(Cl)c2)n2nc(C(F)(F)F)nc2n1 [MMV665874]
Acetyllysine [1]: -0.4022 | N-acetyl-L-ornithine [1]: -0.2526 | N-carbamoyl-L-aspartate [1]: 4.028 | NADPH [1]: 0.1752 | dAMP [1]: -0.05231 | dCMP [1]: -0.05814 | dTDP [1]: -1.343 | dTMP [1]: -1.0853 | dTTP [1]: -1.254 | dihydroorotate [1]: 5.397 | orotate [1]: 0.2167 | DLH [1]: -0.1943 | DLS/SDL/SID [1]: -0.1199 | PD [1]: -0.005549 | PEE [1]: -0.4065 | PVNF [1]: -0.2835 | 3-phosphoglycerate [1]: 0.03547 | ADP-D-glucose [1]: 0.02005 | ATP [1]: 0.1462 | CDP [1]: -0.8722 | D-sedoheptulose-1/7-phosphate [1]: -0.2118 | FAD [1]: -0.01762 | GMP [1]: 0.4662 | NAD+ [1]: -0.1 | NADP+ [1]: -0.1197 | Octoluse Bisphosphate [1]: 0.03302 | Pyroglutamic acid [1]: 0.08116 | UDP-D-glucose [1]: -0.2063 | UDP-D-glucuronate [1]: -0.109 | UDP-N-acetyl-glucosamine [1]: -0.4453 | UDP [1]: -1.835 | UMP [1]: -1.099 | UTP [1]: -1.702 | a-ketoglutarate [1]: -0.1317 | citrate/isocitrate [1]: -0.1582 | cytidine [1]: -0.03725 | dATP [1]: 0.3143 | dGMP/AMP [1]: 0.07446 | fumarate [1]: -0.3892 | glucose-1/6-phosphate [1]: 0.2173 | glycerate [1]: 0.07615 | guanine [1]: 0.251 | guanosine [1]: 0.7775 | hypoxanthine [1]: -0.1073 | indole [1]: -0.01704 | inosine [1]: -0.02522 | 2_3-Diphosphoglyceric acid [1]: 0.1914 | 4-phosphopantothenate [1]: -0.3242 | 6-phospho-D-gluconate [1]: 0.01162 | FMN [1]: -0.4401 | IMP [1]: -0.2175 | Pyrophosphate [1]: 0.07871 | Sedoheptoluse bisphosphate [1]: 0.06707 | cyclic-AMP [1]: -0.1282 | glutathione disulfide [1]: -0.03556 | lactate [1]: -0.043 | myo-inositol [1]: -0.09181 | nicotinate [1]: -0.01808 | ornithine [1]: 0.04606 | phosphoenolpyruvate [1]: 0.07297 | pyruvate [1]: 0.2233 | ribose-phosphate [1]: 0.2644 | sarcosine/alanine [1]: 0.1358 | sn-glycerol-3-phosphate [1]: 0.2659 | succinate/methylmalonic acid [1]: -1.091 | uridine [1]: -0.8568 | xanthosine [1]: -0.03941

EC50 [2]: 0.139 µM
Compound: COc1cccc(NC(=O)[C@H](C(C)C)n2c(=O)[nH]c3ccccc3c2=O)c1 [MMV665878]
Acetyllysine [1]: -3.834 | N-acetyl-L-ornithine [1]: -2.277 | N-carbamoyl-L-aspartate [1]: -2.026 | NADPH [1]: -0.665 | dAMP [1]: 2.607 | dCMP [1]: 1.538 | dTDP [1]: 2.818 | dTMP [1]: 4.246 | dTTP [1]: 1.03 | dihydroorotate [1]: -1.926 | orotate [1]: 0.2146 | DLH [1]: -4.819 | DLS/SDL/SID [1]: -3.927 | PD [1]: -1.32 | PEE [1]: -2.783 | PVNF [1]: -5.1424 | 3-phosphoglycerate [1]: -0.5747 | ADP-D-glucose [1]: -0.6055 | ATP [1]: -2.891 | CDP [1]: 0.1584 | D-sedoheptulose-1/7-phosphate [1]: -0.5795 | FAD [1]: -1.328 | GMP [1]: -2.538 | NAD+ [1]: 0.9896 | NADP+ [1]: -0.2932 | Octoluse Bisphosphate [1]: -2.487 | Pyroglutamic acid [1]: -0.4358 | UDP-D-glucose [1]: -0.03487 | UDP-D-glucuronate [1]: -0.6105 | UDP-N-acetyl-glucosamine [1]: 0.07778 | UDP [1]: -0.1367 | UMP [1]: 0.1216 | UTP [1]: -1.546 | a-ketoglutarate [1]: -0.5207 | citrate/isocitrate [1]: -1.159 | cytidine [1]: 0.1724 | dATP [1]: -1.5606 | dGMP/AMP [1]: -1.273 | fumarate [1]: 0.3725 | glucose-1/6-phosphate [1]: -0.9191 | glycerate [1]: 0.3692 | guanine [1]: -0.09985 | guanosine [1]: -0.2889 | hypoxanthine [1]: -0.3925 | indole [1]: -0.3292 | inosine [1]: -0.04266 | 2_3-Diphosphoglyceric acid [1]: -1.256 | 4-phosphopantothenate [1]: -0.4545 | 6-phospho-D-gluconate [1]: -0.4297 | FMN [1]: -0.3548 | IMP [1]: -0.5176 | Pyrophosphate [1]: -1.335 | Sedoheptoluse bisphosphate [1]: -0.9263 | cyclic-AMP [1]: -1.127 | glutathione disulfide [1]: -0.2446 | lactate [1]: -1.397 | myo-inositol [1]: -0.3766 | nicotinate [1]: 0.2929 | ornithine [1]: 0.191 | phosphoenolpyruvate [1]: -0.242 | pyruvate [1]: -1.851 | ribose-phosphate [1]: -0.6091 | sarcosine/alanine [1]: -1.666 | sn-glycerol-3-phosphate [1]: 0.02823 | succinate/methylmalonic acid [1]: 0.3592 | uridine [1]: 0.5173 | xanthosine [1]: -1.769
